Tested on: 766 cancer cell lines
Experiment: Large-scale cell-line viability measurements (766 cancer cell lines, 72 h, AUC)
Assay type: cell-based, human
Description: Cell lines were treated for 72 hours with concentrations ranging from 66.4 μM-2 nM in 2-fold step dilutions.
To characterize cellular sensitivity to DNMDP further, 766 genomically characterized cancer cell lines were screened for DMNDP sensitivity at concentrations ranging from 66.4 μM to 2 nM in 2-fold dilution steps for 72 hours. From these cell lines, 22 cell lines were categorized as sensitive with a robust Z-score lower than −4, which represented multiple lineages including multiple melanoma cell lines, amongst others (Table 1).
The sensitivity of […] cancer cell lines (CCLs) was measured drawn from 23 different lineages to DNMDP. Each cell line was plated in its preferred media in white opaque 1536-plates at a density of 500 cells/well. After incubating overnight, DNMDP was added by acoustic transfer at 16 concentrations ranging from 66.4 μM-2 nM in 2-fold steps in duplicate (Labcyte Echo 555, Labcyte Inc., Sunnyvale, Calif.). After 72 hours treatment, cellular ATP levels were measured as a surrogate for viability (CELLTITERGLO®, Promega Corporation, Madison, Wis.) according to manufacturer's protocols using a ViewLux Microplate Imager (PerkinElmer, Waltham, Mass.) and normalized to background (media-only) and vehicle (DMSO)-treated control wells.
Concentration response curves were fit using nonlinear fits to 2- or 3-parameter sigmoid functions through all 16 concentrations with the low-concentration asymptote set to the DMSO-normalized value, and an optimal 8-point dose curve spanning the range of compound-sensitivity was identified. The area under the 8-point dose curve (AUC) was computed by numeric integration as a metric for sensitivity for further analysis. Similar sensitivity measurements have been obtained for a collection of 480 other compounds, enabling analyses that identify cell lines responding uniquely to DNMDP (see Broad Institute Cancer Therapeutics Response Portal, a dataset to identify comprehensively relationships between genetic and lineage features of human cancer cell lines and small-molecule sensitivities for complete list of compounds).

[1] = ALLSIL (HAEMATOPOIETIC AND LYMPHOID TISSUE), 72 hours
[2] = BICR6 (UPPER AERODIGESTIVE TRACT), 72 hours
[3] = DKMG (CENTRAL NERVOUS SYSTEM), 72 hours
[4] = DND41 (HAEMATOPOIETIC AND LYMPHOID TISSUE), 72 hours
[5] = EJM (HAEMATOPOIETIC AND LYMPHOID TISSUE), 72 hours
[6] = GB1 (CENTRAL NERVOUS SYSTEM), 72 hours
[7] = GOS3 (CENTRAL NERVOUS SYSTEM), 72 hours
[8] = GRANTA519 (HAEMATOPOIETIC AND LYMPHOID TISSUE), 72 hours
[9] = HEL9217 (HAEMATOPOIETIC AND LYMPHOID TISSUE), 72 hours
[10] = HUT78 (HAEMATOPOIETIC AND LYMPHOID TISSUE), 72 hours
[11] = KCL22 (HAEMATOPOIETIC AND LYMPHOID TISSUE), 72 hours
[12] = KMM1 (HAEMATOPOIETIC AND LYMPHOID TISSUE), 72 hours
[13] = KMS11 (HAEMATOPOIETIC AND LYMPHOID TISSUE), 72 hours
[14] = KMS12BM (HAEMATOPOIETIC AND LYMPHOID TISSUE), 72 hours
[15] = KMS20 (HAEMATOPOIETIC AND LYMPHOID TISSUE), 72 hours
[16] = KMS28BM (HAEMATOPOIETIC AND LYMPHOID TISSUE), 72 hours
[17] = KMS34 (HAEMATOPOIETIC AND LYMPHOID TISSUE), 72 hours
[18] = KO52 (HAEMATOPOIETIC AND LYMPHOID TISSUE), 72 hours
[19] = L540 (HAEMATOPOIETIC AND LYMPHOID TISSUE), 72 hours
[20] = L1236 (HAEMATOPOIETIC AND LYMPHOID TISSUE), 72 hours
[21] = LAMA84 (HAEMATOPOIETIC AND LYMPHOID TISSUE), 72 hours
[22] = LNCAPCLONEFGC (PROSTATE), 72 hours
[23] = LP1 (HAEMATOPOIETIC AND LYMPHOID TISSUE), 72 hours

## CCN(CC)c1ccc(C2=NNC(=O)CC2C)cc1[N+](=O)[O-] (centres unmarked) [DNMDP, 6-(4-(diethylamino)-3-nitrophenyl)-5-methyl-4,5-dihydropyridazin-3(2H)-one]
766 cell lines, 66.4 μM to 2 nM, 72 hours
  number of cell lines categorized as sensitive (robust Z-score lower than −4): 22 cell lines
766 genomically-characterized cancer cell lines
  share of cell lines with nanomolar efficacy: about 3%
A549 (LUNG), 72 hours
  DNMDP AUC: 5.9509
  Robust Z-score: −0.7177
[1]
  DNMDP AUC: 5.8724
  Robust Z-score: −0.8001
[2]
  DNMDP AUC: 5.8837
  Robust Z-score: −0.7882
BT549 (BREAST), 72 hours
  DNMDP AUC: 5.9226
  Robust Z-score: −0.7474
C32 (SKIN), 72 hours
  DNMDP AUC: 6.1786
  Robust Z-score: −0.4787
CAL54 (KIDNEY), 72 hours
  DNMDP AUC: 6.1949
  Robust Z-score: −0.4616
COLO668 (LUNG), 72 hours
  DNMDP AUC: 5.9969
  Robust Z-score: −0.6694
COLO679 (SKIN), 72 hours
  DNMDP AUC: 5.9634
  Robust Z-score: −0.7046
COLO800 (SKIN), 72 hours
  DNMDP AUC: 6.1272
  Robust Z-score: −0.5326
CORL51 (LUNG), 72 hours
  DNMDP AUC: 0.5944
  Robust Z-score: −6.34
COV362 (OVARY), 72 hours
  DNMDP AUC: 5.6913
  Robust Z-score: −0.9902
[3]
  DNMDP AUC: 1.7217
  Robust Z-score: −5.157
DMS53 (LUNG), 72 hours
  DNMDP AUC: 6.2061
  Robust Z-score: −0.4498
[4]
  DNMDP AUC: 6.1979
  Robust Z-score: −0.4584
DU145 (PROSTATE), 72 hours
  DNMDP AUC: 5.7825
  Robust Z-score: −0.8945
DV90 (LUNG), 72 hours
  DNMDP AUC: 6.1676
  Robust Z-score: −0.4902
ECGI10 (OESOPHAGUS), 72 hours
  DNMDP AUC: 6.2151
  Robust Z-score: −0.4404
[5]
  DNMDP AUC: 6.1782
  Robust Z-score: −0.4791
EPLC272H (LUNG), 72 hours
  DNMDP AUC: 6.0469
  Robust Z-score: −0.6169
G402 (SOFT TISSUE), 72 hours
  DNMDP AUC: 6.0606
  Robust Z-score: −0.6026
[6]
  DNMDP AUC: 1.8269
  Robust Z-score: −5.046
[7]
  DNMDP AUC: 6.2076
  Robust Z-score: −0.4483
[8]
  DNMDP AUC: 5.8937
  Robust Z-score: −0.7777
GSU (STOMACH), 72 hours
  DNMDP AUC: 6.1172
  Robust Z-score: −0.5431
HCC1395 (BREAST), 72 hours
  DNMDP AUC: 5.9716
  Robust Z-score: −0.696
HCC1419 (BREAST), 72 hours
  DNMDP AUC: 5.7835
  Robust Z-score: −0.8934
HCC1428 (BREAST), 72 hours
  DNMDP AUC: 5.9402
  Robust Z-score: −0.7289
HCC1500 (BREAST), 72 hours
  DNMDP AUC: 5.9451
  Robust Z-score: −0.7238
[9]
  DNMDP AUC: 0.75
  Robust Z-score: −6.177
HS888T (BONE), 72 hours
  DNMDP AUC: 5.8353
  Robust Z-score: −0.839
[10]
  DNMDP AUC: 1.5307
  Robust Z-score: −5.357
IALM (LUNG), 72 hours
  DNMDP AUC: 5.775
  Robust Z-score: −0.9023
JHH4 (LIVER), 72 hours
  DNMDP AUC: 5.71
  Robust Z-score: −0.9706
[11]
  DNMDP AUC: 5.9598
  Robust Z-score: −0.7084
[12]
  DNMDP AUC: 6.1723
  Robust Z-score: −0.4853
[13]
  DNMDP AUC: 6.2008
  Robust Z-score: −0.4554
[14]
  DNMDP AUC: 6.0135
  Robust Z-score: −0.652
[15]
  DNMDP AUC: 6.0542
  Robust Z-score: −0.6093
[16]
  DNMDP AUC: 5.9369
  Robust Z-score: −0.7324
[17]
  DNMDP AUC: 5.8799
  Robust Z-score: −0.7922
[18]
  DNMDP AUC: 6.2174
  Robust Z-score: −0.438
KYSE410 (OESOPHAGUS), 72 hours
  DNMDP AUC: 6.0741
  Robust Z-score: −0.5884
[19]
  DNMDP AUC: 6.0807
  Robust Z-score: −0.5815
[20]
  DNMDP AUC: 6.0853
  Robust Z-score: −0.5766
[21]
  DNMDP AUC: 5.8201
  Robust Z-score: −0.855
LMSU (STOMACH), 72 hours
  DNMDP AUC: 6.0528
  Robust Z-score: −0.6107
[22]
  DNMDP AUC: 5.7557
  Robust Z-score: −0.9226
LOUNH91 (LUNG), 72 hours
  DNMDP AUC: 5.9793
  Robust Z-score: −0.6879
[23]
  DNMDP AUC: 6.1029
  Robust Z-score: −0.5582
LU99 (LUNG), 72 hours
  DNMDP AUC: 5.8016

Source: US11207320B2, “Compositions and methods for cancer expressing PDE3A or SLFN12” (The Broad Institute, Inc., priority 2015, dated 2021)
